The text below walks through data of PMC8209153, “Improvement in aqueous solubility of achiral symmetric cyclofenil by modification to a chiral asymmetric analog” (Scientific Reports, 2021).

SMILES strings stand for the structures. Converted amounts (≈) assume the structure as drawn.

A short description of data set [1]: Thermodynamic aqueous solubility of the most stable crystals. The format is physicochemical. The note with it: for solubility at 48 h: phosphate buffer/EtOH (6:4), aqueous with cosolvent or surfactant or cyclodextrin, thermodynamic from solid, mixture of 0.067 M phosphate buffer (pH 6.8) and EtOH (6:4), shaken 48 h at 4 °C, most stable crystals; for Fold more soluble than symmetric isomer 6: relative to 6. The procedure:
The crystals were ground with an agate mortar and suspended in a mixture of 0.067 M phosphate buffer (pH 6.8) and EtOH (6:4). The suspension was shaken for 48 h at 4 °C, then filtered through a Millipore Millex-LG filter (0.20 μm). The filtrate was diluted in DMF and subjected to HPLC. The solubility was calculated by the absolute calibration curve method. We used a mixed solvent because the solubility in 0.067 M phosphate buffer (pH 6.8) was too low to allow quantification. EtOH is used clinically as a solubilizer for insoluble drugs such as taxol and pacritaxel. When the solutions were shaken at 37 °C, hydrolysis of the ester moiety occurred, and therefore the suspensions were shaken at 4 °C.

The nature of a further data set: LogP. It counts as physicochemical. From the text:
LogP values of all analogs were higher than that of 1, as expected. […] The observation that the measured crystal densities of 3b, 4a and (R)-4c were lower than that of 1 supports this idea.

In data set [2] the test system is human cryopreserved hepatocytes. Briefly: Metabolic rate of prodrugs in human cryopreserved hepatocytes. The format is in vitro ADME. The note with it: human hepatocytes 1.0×10^6 cells/mL, 50 μM, 2 h, 37 °C. The protocol: The metabolic rate of prodrugs was evaluated using human cryopreserved hepatocytes (Table 3). Although the metabolic rate of 3d with a bulky acyl group was decreased, most of the asymmetric structural analogs, including those with improved aqueous solubility (3b, 4a, (R)-4c), were metabolized to the active form as quickly as 1. Thus, we concluded that the chemical modifications applied here had little effect on the metabolic rate.
(§1) Test compounds (final 50 μM) in DMSO (final 0.5%) were added to a suspension of human hepatocytes (HMCS1S, Thermo Fisher Scientific) at a density of 1.0×10^6 cells/mL. The cells were incubated at 37 °C in humidified incubator (5% CO2) for 2 h, and then acetonitrile was added to stop the reaction. The mixture was vortexed and centrifuged at 15000 rpm for 10 min. HPLC analysis of the supernatant was performed on an analytical column (ODS reversed-phase column, 5 μm, 4.6 mm x 150 mm) eluted with a mobile phase consisting of H2O and CH3CN at a flow rate of 1.0 mL/min at 37 °C, with UV monitoring at 254 nm. Because some analogs were hydrolyzed in the absence of hepatocytes, we also evaluated the hydrolysis rate without hepatocytes.

Data set [3] in a line: Hydrolysis of prodrugs without hepatocytes. It counts as in vitro ADME. The conditions noted are these: 50 μM, 2 h, 37 °C. The procedure: as §1
Data set [4] can be described thus: Membrane permeability by retention on IAM column. It counts as in vitro ADME. The conditions noted are these: IAM.PC.DD2 column, 0.1 M phosphate buffer (pH 6.8) in 60% CH3CN, 1.0 mL/min, 37 °C. The protocol:
Membrane permeability was determined by HPLC on an IAM.PC.DD2 column (Regis Technologies, Inc., 10 μm, 300 Å, 30 mm × 4.6 mm) eluted with mobile phase consisting of 0.1 M phosphate buffer (pH 6.8) and CH3CN (4:6) at a flow rate of 1.0 mL/min, with UV monitoring at 254 nm, 37 °C.
Firstly, we evaluated membrane permeability by using an Immobilized Artificial Membrane (IAM) column, which contains silica gel bearing phosphatidylcholine and widely utilized to predict membrane permeability[31],[32].

Data set [5] in a line: Crystal density (X-ray crystallography). It counts as physicochemical. The conditions noted are these: measured crystal density.
A further data set deals with T1, ERα (Homo sapiens, UniProt P03372).
T1 construct: expressed in transfected cells; host or cells: HEK 293 cells
T1 sequence (P03372 311-547 limits assumed): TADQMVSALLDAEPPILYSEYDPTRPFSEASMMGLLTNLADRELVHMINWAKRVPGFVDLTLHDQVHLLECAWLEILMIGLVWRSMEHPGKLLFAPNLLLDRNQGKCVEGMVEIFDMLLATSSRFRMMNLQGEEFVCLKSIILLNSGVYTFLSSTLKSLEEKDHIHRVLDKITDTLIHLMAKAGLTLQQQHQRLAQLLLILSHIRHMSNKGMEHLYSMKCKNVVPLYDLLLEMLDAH
In words: Luciferase reporter gene assay, ERα antagonistic activity. It counts as cell-based. The conditions noted are these: HEK 293 cells, GAL4N-human ERα ligand binding domain, with 0.3 nM estradiol, 24 h; mean ± SD. The procedure: (§2) HEK 293 cells were cultured in DMEM supplemented with 10% FBS and penicillin and streptomycin at 37 °C in a humidified incubator (5% CO2).
(§3) HEK 293 cells were plated at 20% confluence in a 96-well plate at 24 h prior to transfection. Transfection of plasmids (CMX-GAL4N-human ERα/β ligand binding domain, TK-MH100x4-Luc, CMX-β-galactosidase) was performed by the calcium phosphate coprecipitation method. Test compounds in DMSO (final 0.5%) were added at 24 h after transfection, together with 0.3 nM estradiol. The plate was incubated for 24 h, then luciferase substrate solution was added to each well and luminescence was measured on an EnVision microplate reader. β-Galactosidase was added and the absorbance was measured on the microplate reader with emission detection at 405 nm. Each sample was evaluated in triplicate for two times and the mean value was calculated. A six-point sigmoidal dose-response curve was generated for each compound. The IC50 value for each compound was calculated by Origin software. In Table 4, biological reproducibility is reported as the mean IC50 SD.

A further data set concerns the target T2, ERβ (Homo sapiens, UniProt Q92731).
T2 construct: expressed in transfected cells; host or cells: HEK 293 cells
Briefly: Luciferase reporter gene assay, ERβ antagonistic activity. The conditions noted are these: HEK 293 cells, GAL4N-human ERβ ligand binding domain, with 0.3 nM estradiol, 24 h; mean ± SD. The format is cell-based. The procedure:
as §2, §3
In general terms: A reporter such as luciferase makes a cellular process visible.

Setting [6] is: phosphate buffer (pH 6.8)/EtOH (6:4).

T2 sequence (Q92731 264-498 limits assumed): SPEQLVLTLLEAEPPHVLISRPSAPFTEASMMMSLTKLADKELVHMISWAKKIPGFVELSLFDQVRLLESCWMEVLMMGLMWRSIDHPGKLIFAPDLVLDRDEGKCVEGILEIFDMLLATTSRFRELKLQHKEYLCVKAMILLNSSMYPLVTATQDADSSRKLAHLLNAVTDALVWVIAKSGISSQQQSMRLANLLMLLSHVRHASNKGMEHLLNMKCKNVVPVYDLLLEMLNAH

What is called solubility is the concentration that dissolves in the medium under given conditions. For orientation: logP means the decadic logarithm of the partition coefficient of the neutral form, usually between octanol and water. The low end stands for a more hydrophilic compound, the high end for a more lipophilic compound. What is called melting point is the temperature of the solid-liquid transition. On to `CC(=O)Oc1ccc(C(=C2CCCCC2)c2ccc(OC(C)=O)cc2C)cc1` [Compound 4b, 4-((4-Acetoxy-2-methylphenyl)(cyclohexylidene)methyl)phenylacetate], for which the melting point was 99.9 °C. In addition, the solubility at 48 h in data set [1] was found to be 23.6 µg/mL (≈ 62.4 µM). Moreover, in data set [1] (setting [6]), the “Fold more soluble than symmetric isomer 6” value was determined as 6.5 fold. The logP in “LogP” came out at 5.12.

`CCC(=O)Oc1ccc(C(=C2CCCCC2)c2ccc(OC(C)=O)cc2)cc1` [Compound 3a, 4-((4-Acetoxyphenyl)(cyclohexylidene)methyl)phenylpropionate]: the melting point came out at 132.8 °C. In addition, in data set [1], the solubility at 48 h turned out to be 3.38 µg/mL (≈ 8.93 µM). The same compound returned a logP in “LogP” of 5.48. In data set [2], the “Hydrolysis rate with hepatocytes” value was determined as 100%. Moreover, in data set [3], the “Hydrolysis rate without hepatocytes” value was determined as 15.8%. The “Retention time on IAM column” value in data set [4] amounted to 4.22 min.

For `CC(=O)Oc1ccc(C(=C2CCC[C@@H](C)C2)c2ccc(OC(C)=O)cc2)cc1` [(R)-4c, (R)-((3-Methylcyclohexylidene)methylene)bis(4,1-phenylene)diacetate], the melting point came out at 92 °C. The solubility at 48 h in data set [1] amounted to 27.8 µg/mL (≈ 73.5 µM). For the same compound, the “Fold more soluble than symmetric isomer 6” value in [1] (setting [6]) came to 7.7 fold. In addition, in data set [1] (relative to cyclofenil (1), phosphate buffer (pH 6.8)/EtOH (6:4)), the “Fold more soluble than 1” value is 3.6 fold. The compound further came in with a logP in the data set “LogP” of 5.34. For the same compound, in data set [2], the “Hydrolysis rate with hepatocytes” value was found to be 100%. Moreover, in data set [3], the “Hydrolysis rate without hepatocytes” value stood at 13.8%. Further, the “Retention time on IAM column” value in data set [4] was found to be 3.93 min. The compound further returned a Crystal density in [5] of 1.227 g/mL.

On to `CC(=O)Oc1ccc(C(=C2CCCCC2)c2ccc(OC(C)=O)c(C)c2)cc1` [Compound 4a, 4-((4-Acetoxy-3-methylphenyl)(cyclohexylidene)methyl)phenylacetate], for which the melting point turned out to be 114 °C. Moreover, the solubility at 48 h in data set [1] came to 10.3 µg/mL (≈ 27.2 µM). For the same compound, the “Fold more soluble than symmetric isomer 6” value in data set [1] (setting [6]) turned out to be 2.9 fold. The lipophilicity (logP) in the data set “LogP” worked out at 5.26. Besides, the “Hydrolysis rate with hepatocytes” value in data set [2] was 100%. In addition, in [3], the “Hydrolysis rate without hepatocytes” value was 0%. In [4], the “Retention time on IAM column” value amounted to 3.72 min.

Regarding `CC(=O)Oc1ccc(C(=C2CCCCC2)c2ccc(OC(=O)C(C)(C)C)cc2)cc1` [Compound 3d, 4-((4-Acetoxyphenyl)(cyclohexylidene)methyl)phenylpivalate], the melting point is 127 °C. Besides, in data set [1], the solubility at 48 h is 2.25 µg/mL (≈ 5.53 µM). In “LogP”, the logP was 6.5. Besides, in data set [2], the “Hydrolysis rate with hepatocytes” value is on record as 77.7%. The “Hydrolysis rate without hepatocytes” value in data set [3] is 0%. Besides, in data set [4], the “Retention time on IAM column” value is recorded as 8.44 min.

For orientation: IC50 means the point on the concentration scale where inhibition reaches its midpoint. The low end stands for higher potency, the high end for lower potency. With `Cc1cc(C(=C2CCCCC2)c2ccc(O)cc2)ccc1O` [Compound 10a, 4-(Cyclohexylidene(4-hydroxyphenyl)methyl)-2-methylphenol], the IC50 at ERα came out at 120 ± 7.1 nM; on ERβ, 51 ± 40 nM.

In turn, `CCC(=O)Oc1ccc(C(=C2CCCCC2)c2ccc(OC(=O)CC)cc2)cc1` [Compound 5a, (Cyclohexylidenemethylene)bis(4,1-phenylene)dipropionate] gave a melting point of 139 °C. Besides, the solubility at 48 h in [1] stood at 0.622 µg/mL (≈ 1.58 µM). The compound also displayed a logP in the data set “LogP” of 6.02.

Consider `CCCC(=O)Oc1ccc(C(=C2CCCCC2)c2ccc(OC(C)=O)cc2)cc1` [Compound 3b, 4-((4-Acetoxyphenyl)(cyclohexylidene)methyl)phenylbutyrate], for which the melting point came to 69 °C. For the same compound, the solubility at 48 h in [1] turned out to be 10.8 µg/mL (≈ 27.5 µM). The “Fold more soluble than symmetric isomer 5a” value in data set [1] (relative to 5a, phosphate buffer (pH 6.8)/EtOH (6:4)) is 17.3 fold. Besides, the logP in the data set “LogP” turned out to be 6. Further, the “Hydrolysis rate with hepatocytes” value in data set [2] worked out at 92.1%. For the same compound, in data set [3], the “Hydrolysis rate without hepatocytes” value was 6.3%. Moreover, in [4], the “Retention time on IAM column” value amounted to 5.97 min. Further, the Crystal density in data set [5] stood at 1.236 g/mL.

Compound `CC(=O)Oc1ccc(C(=C2CCC(C)CC2)c2ccc(OC(C)=O)cc2)cc1` (stereo not drawn) [Compound 6, ((4-Methylcyclohexylidene)methylene)bis(4,1-phenylene)diacetate] displayed a melting point of 137 °C. Moreover, the solubility at 48 h in data set [1] was 3.61 µg/mL (≈ 9.54 µM). In addition, in “LogP”, the logP was found to be 5.41. The compound also returned a Crystal density in data set [5] of 1.243 g/mL.

Turning to `Oc1ccc(C(=C2CCCCC2)c2ccc(O)cc2)cc1` [Compound 2, Bis(4-hydroxyphenyl)methylenecyclohexane, reference compound], the IC50 on ERα was determined as 13 ± 7.5 nM; on ERβ, 4.5 ± 0.99 nM.

As for `CCCC(=O)Oc1ccc(C(=C2CCCCC2)c2ccc(OC(=O)CCC)cc2)cc1` [Compound 5b, (Cyclohexylidenemethylene)bis(4,1-phenylene)dibutyrate], the melting point amounted to 80.9 °C. Moreover, the solubility at 48 h in [1] was 0.964 µg/mL (≈ 2.29 µM). The same compound returned a log partition coefficient (logP) in “LogP” of 7.08. This compound gave a Crystal density in data set [5] of 1.244 g/mL.

The compound `CC(=O)Oc1ccc(C(=C2CCCCC2)c2ccc(OC(=O)C(C)C)cc2)cc1` [Compound 3c, 4-((4-Acetoxyphenyl)(cyclohexylidene)methyl)phenylisobutyrate] yielded a melting point of 136.5 °C. In addition, the solubility at 48 h in data set [1] turned out to be 0.719 µg/mL (≈ 1.83 µM). This compound came in with a logP in “LogP” of 6.01. In addition, in [2], the “Hydrolysis rate with hepatocytes” value amounted to 94.5%. Further, in [3], the “Hydrolysis rate without hepatocytes” value came to 0%. Further, the “Retention time on IAM column” value in data set [4] was 5.93 min.

As to `C[C@@H]1CCCC(=C(c2ccc(O)cc2)c2ccc(O)cc2)C1` [(R)-13a, (R)-4,4’-((3-Methylcyclohexylidene)methylene)diphenol], the concentration for half-maximal inhibition (IC50) at ERα is 16 ± 0.71 nM; on ERβ, 4.5 ± 0.57 nM.

Compound `CC(C)C(=O)Oc1ccc(C(=C2CCCCC2)c2ccc(OC(=O)C(C)C)cc2)cc1` [Compound 5c, (Cyclohexylidenemethylene)bis(4,1-phenylene)bis(2-methylpropanoate)] registered a melting point of 129 °C. Besides, in [1], the solubility at 48 h came out at 0.0811 µg/mL (≈ 0.193 µM). Moreover, in “LogP”, the logP amounted to 7.16.
